The source of these data is PMC12136037, “Type II kinase inhibitors that target Parkinson’s disease–associated LRRK2” (Science Advances, 2025).

Common to all, as to experiment: DSF 100 kinase selectivity screen;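 as to dTm: compound tested at 20 µM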
Holding throughout (type): binding

Experiment [1] addresses T1, ~100 representative kinases (Homo sapiens, UniProt Q00532).
T1 construct: Recombinant protein kinase domains with a concentration of 2 μM
The conditions noted are these: Protein CDKL1; average of three replicates. The method, boiled down: (§1)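 Each kinase domain, at 2 μM, is mixed with 20 μM test compound and SYPRO Orange in Hepes (20 mM, pH 7.5) with 500 mM NaCl. Temperature is then raised at 3°C/min and fluorescence-monitored unfolding yields the melting temperature change, ΔTm in degrees Celsius.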

Experiment [2] concerns the target T2, ~100 representative kinases (Homo sapiens, UniProt Q92630).
T2 construct: Recombinant protein kinase domains with a concentration of 2 μM
T2 sequence (Q92630 1-601): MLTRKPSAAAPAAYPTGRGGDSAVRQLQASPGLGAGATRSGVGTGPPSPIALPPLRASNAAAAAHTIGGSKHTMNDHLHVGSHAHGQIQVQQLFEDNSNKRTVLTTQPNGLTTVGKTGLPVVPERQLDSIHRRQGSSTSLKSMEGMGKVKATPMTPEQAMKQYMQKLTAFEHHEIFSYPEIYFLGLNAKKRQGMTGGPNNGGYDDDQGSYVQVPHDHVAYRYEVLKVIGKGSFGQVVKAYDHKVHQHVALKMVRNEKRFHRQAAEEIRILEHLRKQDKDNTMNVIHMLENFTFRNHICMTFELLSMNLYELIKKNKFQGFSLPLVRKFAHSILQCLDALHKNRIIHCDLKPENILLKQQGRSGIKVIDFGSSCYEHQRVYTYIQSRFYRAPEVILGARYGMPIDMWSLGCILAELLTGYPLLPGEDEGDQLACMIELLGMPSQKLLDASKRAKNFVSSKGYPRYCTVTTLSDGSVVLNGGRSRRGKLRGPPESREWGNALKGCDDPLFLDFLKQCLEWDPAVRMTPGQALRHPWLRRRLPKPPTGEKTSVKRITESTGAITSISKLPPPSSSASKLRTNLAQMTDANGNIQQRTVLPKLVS
The conditions noted are these: Protein DYRK2; average of three replicates. Summed up:
as §1

Experiment [3] addresses T3, ~100 representative kinases (Homo sapiens, UniProt Q96PY6).
T3 construct: Recombinant protein kinase domains with a concentration of 2 μM
T3 sequence (Q96PY6 1-1258): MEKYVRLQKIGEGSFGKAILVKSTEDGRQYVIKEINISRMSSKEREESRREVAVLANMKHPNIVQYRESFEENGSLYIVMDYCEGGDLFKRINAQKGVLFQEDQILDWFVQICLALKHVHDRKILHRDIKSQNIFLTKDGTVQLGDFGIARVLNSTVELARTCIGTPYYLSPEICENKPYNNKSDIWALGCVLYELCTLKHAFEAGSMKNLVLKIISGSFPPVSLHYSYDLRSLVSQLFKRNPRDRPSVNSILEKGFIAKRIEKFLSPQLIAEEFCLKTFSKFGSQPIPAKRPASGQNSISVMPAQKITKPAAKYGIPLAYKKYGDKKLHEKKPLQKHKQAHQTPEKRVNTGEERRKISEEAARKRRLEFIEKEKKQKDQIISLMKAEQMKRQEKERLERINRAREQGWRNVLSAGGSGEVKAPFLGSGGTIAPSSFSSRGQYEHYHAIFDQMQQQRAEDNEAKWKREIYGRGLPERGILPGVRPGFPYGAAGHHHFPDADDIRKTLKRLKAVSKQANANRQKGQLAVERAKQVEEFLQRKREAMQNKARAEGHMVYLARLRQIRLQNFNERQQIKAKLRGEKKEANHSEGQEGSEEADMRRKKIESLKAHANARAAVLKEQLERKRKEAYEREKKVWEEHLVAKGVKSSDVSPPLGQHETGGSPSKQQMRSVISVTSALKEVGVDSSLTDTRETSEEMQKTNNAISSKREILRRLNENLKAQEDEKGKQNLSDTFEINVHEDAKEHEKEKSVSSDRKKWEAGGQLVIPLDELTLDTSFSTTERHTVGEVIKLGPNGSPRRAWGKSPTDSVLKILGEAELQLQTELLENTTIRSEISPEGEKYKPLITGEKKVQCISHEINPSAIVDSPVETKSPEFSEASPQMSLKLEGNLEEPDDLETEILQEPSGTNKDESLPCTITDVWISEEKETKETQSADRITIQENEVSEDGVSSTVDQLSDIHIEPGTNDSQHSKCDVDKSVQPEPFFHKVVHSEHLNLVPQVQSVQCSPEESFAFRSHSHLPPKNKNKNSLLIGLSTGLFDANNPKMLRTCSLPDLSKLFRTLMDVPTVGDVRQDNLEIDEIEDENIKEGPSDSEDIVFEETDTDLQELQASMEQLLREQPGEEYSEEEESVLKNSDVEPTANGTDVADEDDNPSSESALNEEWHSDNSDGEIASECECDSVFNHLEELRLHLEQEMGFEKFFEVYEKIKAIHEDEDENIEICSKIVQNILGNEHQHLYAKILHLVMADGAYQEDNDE
The conditions noted are these: protein NEK1; average of three replicates. Summed up:
as §1

In experiment [4] the test system is ~100 representative kinases. The conditions noted are these: for dTm: Protein BRD, average of three replicates. Summed up:
as §1

The mark [5] stands for this setting: number of proteins of the DSF panel with dTm >5K.
Setting [6] is: selectivity score: # >5K divided by # of proteins tested in the DSF panel.

SMILES strings stand for the structures. Where two headings read alike, the source gives them in different places.

T1 sequence (Q00532 whole entry, the tested form may be a part): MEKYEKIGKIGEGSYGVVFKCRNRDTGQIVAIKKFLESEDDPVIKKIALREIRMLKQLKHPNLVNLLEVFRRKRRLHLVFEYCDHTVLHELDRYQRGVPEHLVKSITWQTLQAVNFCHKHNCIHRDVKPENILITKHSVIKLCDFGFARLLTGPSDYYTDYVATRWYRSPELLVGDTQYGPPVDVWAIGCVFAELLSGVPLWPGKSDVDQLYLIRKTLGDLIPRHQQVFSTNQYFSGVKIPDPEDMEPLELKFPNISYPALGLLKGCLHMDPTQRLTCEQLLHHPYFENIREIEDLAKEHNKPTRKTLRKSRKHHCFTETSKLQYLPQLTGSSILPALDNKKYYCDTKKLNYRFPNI

On to `CCNc1nc(Nc2cc(F)c(C(=O)N3CCOCC3)cc2OC)ncc1C(F)(F)F` [GNE-7915], for which the dTm is 0.08 K in experiment [1], 4.85 K in experiment [2], 0.68 K in experiment [3] and -0.21 K in experiment [4]. The “# >5K” value in experiment [4] (setting [5]) was 3. For the same compound, the “S(5K)” value in experiment [4] (setting [6]) worked out at 0.029.
Take `Cc1ccc(C(=O)Nc2ccc(CN3CCN(C)CC3)c(C(F)(F)F)c2)cc1C#Cc1cnc2[nH]ncc2c1` [GZD-824, reference compound]: the dTm in experiment [1] was 4.34 K; in experiment [2], 4.99 K; in experiment [3], 1.45 K; in experiment [4], -0.37 K. For the same compound, the “# >5K” value in experiment [4] came to 31. In experiment [4], the “S(5K)” value was 0.313.
`C[C@@H]1CN(c2cc(-c3n[nH]c4ccc(OC5(C)CC5)cc34)ncn2)C[C@H](C)O1` [MLi2]: the dTm in experiment [1] is reported as -0.11 K; in experiment [2], 1.21 K; in experiment [3], 0.27 K; in experiment [4], 0.12 K. For the same compound, the “# >5K” value in experiment [4] (setting [5]) came to 2. Moreover, the “S(5K)” value in experiment [4] (setting [6]) amounted to 0.019.
Take `Cn1cc(-c2c[nH]c3ncnc(N4CCOCC4)c23)cc1C#N` [PFE-360]: the dTm is reported as -0.24 K in experiment [1], 1.08 K in experiment [2], 0.39 K in experiment [3] and -0.51 K in experiment [4]. Besides, the “# >5K” value in experiment [4] (setting [5]) amounted to 12. Also, the “S(5K)” value in experiment [4] (setting [6]) was 0.118.
